Measurements reported in ChEMBL document CHEMBL4477222, “Discovery of Novel Thiophene-Based, Thumb Pocket 2 Allosteric Inhibitors of the Hepatitis C NS5B Polymerase with Improved Potency and Physicochemical Profiles” (J Med Chem, 2016).
pEC50: −log10 of the molar value. The source made the active and inactive calls. No cut-off for these calls is given here.

Experiments:
[1] = Permeability from basolateral to apical side in human Caco2 cells; format: ADME, cell-based; details: Caco-2, read-out: permeability
[2] = molecular target: RNA-directed RNA polymerase (Hepacivirus hominis, UniProt O39930, M423I); experiment: Inhibition of HCV genotype 1a NS5B M423I mutant; design: species or system Hepatitis C virus subtype 1a
[3] = Drug uptake in Sprague-Dawley rat plasma at 10 mg/kg, po administered as single dose; format: ADME, organism-based; details: in vivo
[4] = molecular target: RNA-directed RNA polymerase (Hepacivirus hominis, UniProt O39930, M423T); experiment: Inhibition of HCV genotype 1a NS5B M423T mutant; design: species or system Hepatitis C virus subtype 1a
[5] = Metabolic stability in rat liver microsomal S9 fraction assessed as compound remaining at 1 uM after 2 hrs in presence of NADPH; format: ADME, subcellular; details: read-out: Stability
[6] = Clearance in dog at 1 mg/kg, iv through bolus administration; format: ADME, organism-based, Canis lupus familiaris; details: in vivo
[7] = molecular target: Nonstructural protein 5A (Hepatitis C virus, UniProt Q5L478); experiment: Inhibition of HCV genotype 2a NS5A; design: species or system Hepatitis C virus subtype 2a
[8] = Metabolic stability in dog hepatocytes assessed as compound remaining at 10 uM after 2 hrs; format: ADME, cell-based, Canis lupus familiaris, Hepatocyte; details: read-out: Stability
[9] = Volume of distribution in steady state in Fischer 344 rat at 1 mg/kg, iv through bolus administration; format: ADME, organism-based; details: in vivo, read-out: Vdss
[10] = Drug excretion in rat bile; format: ADME, tissue-based; details: in vivo
[11] = Half life in monkey at 1 mg/kg, iv through bolus administration; format: ADME, organism-based, Macaca mulatta; details: rhesus monkey, in vivo
[12] = molecular target: Cytochrome P450 1A2 (Homo sapiens, UniProt P05177); experiment: Induction of CYP1A2 (unknown origin) in hepatocytes; format: ADME, cell-based
[13] = Ratio of drug level in liver to heart in Sprague-Dawley rat at 10 mg/kg, po; format: ADME, organism-based; details: in vivo
[14] = Protein binding in human plasma at 1 uM; format: ADME, cell-free; details: read-out: PPB (converted)
[15] = Protein binding in rat plasma at 1 uM; format: ADME, cell-free; details: read-out: PPB (converted)
[16] = system: Nonstructural protein 5A (Hepatitis C virus), Q5L478 [UNDEFINED MUTATION]; experiment: Inhibition of BMS-790052-resistant HCV genotype 1a NS5A M28T mutant; details: Hepatitis C virus subtype 1a
[17] = Permeability from apical to basolateral side in human Caco2 cells; format: ADME, cell-based; details: Caco-2, read-out: permeability
[18] = system: Nonstructural protein 5A (Hepatitis C virus), Q5L478 [UNDEFINED MUTATION]; experiment: Inhibition of BMS-790052-resistant HCV genotype 1a NS5A Y93H mutant; details: Hepatitis C virus subtype 1a
[19] = molecular target: RNA-directed RNA polymerase (Hepacivirus hominis, UniProt O39930, M423V); experiment: Inhibition of HCV genotype 1a NS5B M423V mutant; design: species or system Hepatitis C virus subtype 1a
[20] = system: Nonstructural protein 5A (Hepatitis C virus), Q5L478 [UNDEFINED MUTATION]; experiment: Inhibition of BMS-790052-resistant HCV genotype 1a NS5A Y93N mutant; details: Hepatitis C virus subtype 1a
[21] = Metabolic stability in monkey liver microsomal S9 fraction assessed as compound remaining at 1 uM after 2 hrs in presence of NADPH; format: ADME, subcellular, Macaca mulatta; details: rhesus monkey, read-out: Stability
[22] = AUC (0 to infinity) in monkey at 1 mg/kg, iv through bolus administration; format: ADME, organism-based, Macaca mulatta; design: dose 1 mg/kg, route intravenous, time infinity; details: rhesus monkey, in vivo
[23] = AUC (0 to infinity) in dog at 3 mg/kg, po; format: ADME, organism-based, Canis lupus familiaris; design: dose 3 mg/kg, time infinity, route oral; details: in vivo
[24] = AUC (0 to infinity) in dog at 1 mg/kg, iv through bolus administration; format: ADME, organism-based, Canis lupus familiaris; design: dose 1 mg/kg, route intravenous, time infinity; details: in vivo
[25] = molecular target: Cytochrome P450 3A4 (Homo sapiens, UniProt P08684); experiment: Induction of CYP3A4 (unknown origin) in hepatocytes; format: ADME, cell-based
[26] = Metabolic stability in dog liver microsomal S9 fraction assessed as compound remaining at 1 uM after 2 hrs in presence of NADPH/UDPGA; format: ADME, subcellular, Canis lupus familiaris; details: read-out: Stability
[27] = Drug excretion in rat feces; format: ADME; details: in vivo
[28] = AUC (0 to infinity) in Sprague-Dawley rat at 1 mg/kg, iv through bolus administration; format: ADME, organism-based; design: dose 1 mg/kg, route intravenous, time infinity; details: in vivo
[29] = Metabolic stability in human hepatocytes assessed as compound remaining at 10 uM after 2 hrs; format: ADME, cell-based, Hepatocyte; details: read-out: Stability
[30] = system: Hepatitis C virus subtype 1b; experiment: Inhibition of HCV genotype 1b NS5B assessed as suppression of sub-genomic RNA levels after 96 hrs in presence of telaprevir by luciferase reporter gene assay
[31] = Volume of distribution in steady state in dog at 1 mg/kg, iv through bolus administration; format: ADME, organism-based, Canis lupus familiaris; details: in vivo, read-out: Vdss
[32] = system: Hepatocyte; experiment: Change in CYP1A2 mRNA levels in hepatocytes (unknown origin); format: ADME, cell-based
[33] = Cmax in dog at 3 mg/kg, po; format: ADME, organism-based, Canis lupus familiaris; design: dose 3 mg/kg, route oral; details: in vivo
[34] = Half life in Sprague-Dawley rat at 1 mg/kg, iv through bolus administration; format: ADME, organism-based; details: in vivo
[35] = Metabolic stability in monkey liver microsomal S9 fraction assessed as compound remaining at 1 uM after 2 hrs in presence of NADPH/UDPGA; format: ADME, subcellular, Macaca mulatta; details: rhesus monkey, read-out: Stability
[36] = system: Nonstructural protein 5A (Hepatitis C virus), Q5L478 [UNDEFINED MUTATION]; experiment: Inhibition of BMS-790052-resistant HCV genotype 1a NS5A P32L mutant; details: Hepatitis C virus subtype 1a
[37] = Ratio of drug level in liver to lungs in Sprague-Dawley rat at 10 mg/kg, po; format: ADME, organism-based, Liver/Lung; details: in vivo
[38] = Ratio of drug level in plasma to lungs in Sprague-Dawley rat at 10 mg/kg, po; format: ADME, organism-based, Lung/Plasma; details: in vivo
[39] = molecular target: DNA polymerase alpha catalytic subunit (Homo sapiens) (UniProt P09884); experiment: Inhibition of human DNA polymerase-alpha by fluorescence/radiometric assay
[40] = system: NS3 protease (Hepacivirus C), C1KIQ2 [R155K]; experiment: Inhibition of telaprevir-resistant HCV NS3 protease R155K mutant; details: Hepacivirus hominis
[41] = system: NS3 protease (Hepacivirus C), C1KIQ2 [A156T]; experiment: Inhibition of telaprevir-resistant HCV NS3 protease A156T mutant; details: Hepacivirus hominis
[42] = Protein binding in monkey liver at 1 uM; format: ADME, tissue-based, Macaca mulatta; details: rhesus monkey, read-out: PB (converted)
[43] = Cytotoxicity against human Huh7ET cells assessed as reduction in cell viability after 4 days; format: cell-based
[44] = AUC (0 to infinity) in Fischer 344 rat at 1 mg/kg, iv through bolus administration; format: ADME, organism-based; design: dose 1 mg/kg, time infinity, route intravenous; details: in vivo
[45] = Protein binding in human liver at 1 uM; format: ADME, tissue-based; details: read-out: PB (converted)
[46] = Metabolic stability in human liver microsomal S9 fraction assessed as compound remaining at 1 uM after 2 hrs in presence of NADPH/UDPGA; format: ADME, subcellular; details: read-out: Stability
[47] = Drug uptake in Sprague-Dawley rat liver at 10 mg/kg, po administered as single dose; format: ADME, organism-based; details: in vivo
[48] = Metabolic stability in monkey hepatocytes assessed as compound remaining at 10 uM after 2 hrs; format: ADME, cell-based, Macaca mulatta, Hepatocyte; details: rhesus monkey, read-out: Stability
[49] = Half life in Fischer 344 rat at 1 mg/kg, iv through bolus administration; format: ADME, organism-based; details: in vivo
[50] = AUC (0 to infinity) in Fischer 344 rat at 3 mg/kg, po; format: ADME, organism-based; design: dose 3 mg/kg, route oral, time infinity; details: in vivo
[51] = system: NS3 (Hepatitis C virus), A3EZJ3 [R155K,V36M]; experiment: Inhibition of telaprevir-resistant HCV NS3 protease V36M/R155K double mutant; details: Hepacivirus hominis
[52] = Volume of distribution at steady state in Sprague-Dawley rat at 1 mg/kg, iv through bolus administration; format: ADME, organism-based; details: in vivo, read-out: Vdss
[53] = molecular target: RNA-directed RNA polymerase (Hepacivirus hominis, UniProt O39930, L419I); experiment: Inhibition of HCV genotype 1a NS5B L419I mutant; design: species or system Hepatitis C virus subtype 1a
[54] = Chemical stability of compound under long term storage in solution; format: physicochemical

CC(C)(C)C#Cc1cc(N(CC(=O)N2CCOCC2)C(=O)[C@H]2CC[C@H](C)CC2)c(C(=O)O)s1
Papp B→A [1]: 9.8 ×10⁻⁶ cm/s | pEC50 [2]: 7.05 | Drug uptake [3]: Active | pEC50 [4]: 6.55 | remaining at 2 h, 1 µM [5]: 99% | clearance [6]: 10.1 mL/min/kg | pEC50 [7]: 5.32 | remaining at 2 h, 10 µM [8]: 70% | Vd [9]: 0.86 L/kg | Drug excretion [10]: Metabolite_Detected | half-life [11]: 2.2 h | Activity [12]: Not Active | Ratio [13]: 10 | fraction unbound at 1 µM [14]: 0.014 | fraction unbound at 1 µM [15]: 0.003 | inhibition [16]: Active | Papp A→B [17]: 0.7 ×10⁻⁶ cm/s | inhibition [18]: Active | pEC50 [19]: 6.92 | inhibition [20]: Active | remaining at 2 h, 1 µM [21]: 19% | AUC(0-inf) [22]: 1730 ng·h/mL | AUC(0-inf) [23]: 2340 ng·h/mL | AUC(0-inf) [24]: 1360 ng·h/mL | Activity [25]: Not Active | remaining at 2 h, 1 µM [26]: 82% | Drug excretion [27]: Metabolite_Detected | AUC [28]: 4270 ng·h/mL | remaining at 2 h, 10 µM [29]: 77% | inhibition [30]: Active | Vd [31]: 1.57 L/kg | Activity [32]: Non-Toxic | Cmax [33]: 1550 ng/mL | half-life [34]: 2.35 h | remaining at 2 h, 1 µM [35]: 14% | inhibition [36]: Active | Ratio [37]: 10 | Ratio [38]: 10 | inhibition [39]: inactive | inhibition [40]: Active | inhibition [41]: Active | fraction unbound at 1 µM [42]: 0.093 | CC50 at 96 h [43]: > 20 µM | AUC(0-inf) [44]: 1580 ng·h/mL | fraction unbound at 1 µM [45]: 0.153 | remaining at 2 h, 1 µM [46]: 73% | Drug uptake [47]: Active | remaining at 2 h, 10 µM [48]: 30% | half-life [49]: 1.67 h | AUC(0-inf) [50]: 310 ng·h/mL | inhibition [51]: Active | Vd [52]: 1.55 L/kg | pEC50 [53]: 6.40 | Stability [54]: Stable
